± gives the standard deviation of the averaged measurements.
Tested on: HL-60
Assay: cell viability (% survival relative to DMSO control); higher = less cytotoxic
Settings: 10 µM; 72 h; co-treatment: pictilisib 100 nM
Outline: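 A rescreen of the full library used HL-60 cells in RPMI 1640 with 10% FBS on 384-well plates, run in duplicate at five tenfold concentrations (1–10,000 nM). Each screen included DMSO or 100 nM of one of three metabolic inhibitors and ran 72 h at 37 °C, 5% CO2. CellTiter-Glo viability was scaled between DMSO and 10 μM proteasome-inhibitor wells. Any area under the curve comes from four-parameter log-logistic fits with drc and PharmacoGx.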

Going from `C[C@H](NC(=O)c1sccc1OCc1ccc(Cl)cc1)c1ccccc1` to `Oc1ccc(Nc2nc(-c3ccc(Cl)cc3)cs2)cc1` [SKI II], the cell viability falls from 108 ± 2.9% to 3.95 ± 2.4%.

`O=C(O)C1=CC(=C(c2ccc(O)c(C(=O)O)c2)c2ccc(O)c(C(=O)O)c2)C=CC1=O` [Aurintricarboxylic acid] and `Cc1c(-c2ccc(-c3ccccc3F)cc2)nc2ccc(F)cc2c1C(=O)O` [Brequinar] are within error of each other in cell viability: 103 ± 9.1% for the first, 93 ± 18% for the second.

Going from `COC(=O)[C@]12CCC(C)(C)C[C@H]1[C@H]1C(=O)C=C3[C@@]4(C)C=C(C#N)C(=O)C(C)(C)[C@@H]4CC[C@@]3(C)[C@]1(C)CC2` [Bardoxolone methyl] to `CN(C)c1cc(NC(=O)CNC(C)(C)C)c(O)c2c1C[C@H]1C[C@H]3[C@H](N(C)C)C(=O)C(C(N)=O)C(=O)[C@@]3(O)C(=O)C1C2=O` (stereo partly drawn) [Tigecycline], the cell viability rises from 0.653 ± 0.12% to 102 ± 11%.

Compared with `Nc1nc(Cl)nc2c1ncn2[C@H]1C[C@H](O)[C@@H](CO)O1` [Cladribine], `Cc1cn([C@H]2C[C@H](O)[C@@H](COP(=O)(O)OP(=O)(O)O)O2)c(=O)[nH]c1=O` [Thymidine diphosphate] is higher in cell viability: 3.84 ± 2.1% for the first, 89.1 ± 5.6% for the second.

Going from `O=C1c2cc([N+](=O)[O-])ccc2-n2c1nc1ccccc1c2=O` [GNF-Pf-3777] to `CCC(=O)N1CCN(c2ccc(-n3c(=O)ccc4cnc5ccc(-c6cnc7ccccc7c6)cc5c43)cc2C(F)(F)F)CC1` [Torin1], the cell viability rises from 6.29 ± 5.4% to 65.5 ± 3.1%.

First: C=C(C)[C@H]1Cc2c(ccc3c2O[C@@H]2COc4cc(OC)c(OC)cc4[C@@H]2C3=O)O1 [Rotenone]
Second: COc1ccc2c(C(=S)N(C)CC(=O)O)cccc2c1C(F)(F)F [Tolrestat]
The cell viability of the first is lower: 9.82 ± 1.3% for the first, 100 ± 2% for the second.

First: NC(=O)c1cccc(-c2cccc(OC(=O)NC3CCCCC3)c2)c1 [URB-597]
Second: O=C1O[C@H]([C@@H](O)CO)C(O)=C1O [Vitamin C (ascorbate)]
The cell viability of the first is higher: 111 ± 5.6% for the first, 75.2 ± 19% for the second.

Tested on: myeloid leukemia patient primary cells Pat.13
Assay: cell viability (% survival relative to DMSO control); higher = less cytotoxic
Settings: 1 nM; 72 h
Outline: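 Thawed mononuclear cells from AML or CML patients were purified on Ficoll and cultured for 72 h in RPMI 1640 with 10% FBS, at 10,000 cells/well, on 384-well plates carrying 70 pre-printed compounds at 1–10,000 nM in five tenfold steps, in duplicate. Viability came from CellTiter-Glo, normalised against DMSO and against 10 μM proteasome inhibitor. Any area under the curve given was derived from log-logistic curve fits in the drc and PharmacoGx R packages, and these fits had four parameters.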

First: O=C(C1CC1)N1CC[C@@H](C=C2NNC(=O)N2c2ccc(-c3ccc4occc4c3)cc2)C1
Second: CCC(=O)N1CCN(c2ccc(-n3c(=O)ccc4cnc5ccc(-c6cnc7ccccc7c6)cc5c43)cc2C(F)(F)F)CC1 [Torin1]
The cell viability of the first is lower: 85.5% for the first, 91.5% for the second.

Going from `C[C@H](NC(=O)c1sccc1OCc1ccc(Cl)cc1)c1ccccc1` to `Oc1ccc(Nc2nc(-c3ccc(Cl)cc3)cs2)cc1` [SKI II], the cell viability falls from 92.9% to 77.6%.

First: O=C(O)C1=CC(=C(c2ccc(O)c(C(=O)O)c2)c2ccc(O)c(C(=O)O)c2)C=CC1=O [Aurintricarboxylic acid]
Second: Cc1c(-c2ccc(-c3ccccc3F)cc2)nc2ccc(F)cc2c1C(=O)O [Brequinar]
The cell viability of the first is lower: 89.1% for the first, over 100% for the second.

Compared with `COC(=O)[C@]12CCC(C)(C)C[C@H]1[C@H]1C(=O)C=C3[C@@]4(C)C=C(C#N)C(=O)C(C)(C)[C@@H]4CC[C@@]3(C)[C@]1(C)CC2` [Bardoxolone methyl], `C=C(C)[C@H]1Cc2c(ccc3c2O[C@@H]2COc4cc(OC)c(OC)cc4[C@@H]2C3=O)O1` [Rotenone] is lower in cell viability: 86.5% for the first, 62.5% for the second.

First: Nc1nc(Cl)nc2c1ncn2[C@H]1C[C@H](O)[C@@H](CO)O1 [Cladribine]
Second: O=C1c2cc([N+](=O)[O-])ccc2-n2c1nc1ccccc1c2=O [GNF-Pf-3777]
The cell viability of the first is higher: 96.2% for the first, 94.2% for the second.

Same assay, conditions: 10 nM; 72 h

Going from `O=C(C1CC1)N1CC[C@@H](C=C2NNC(=O)N2c2ccc(-c3ccc4occc4c3)cc2)C1` to `CCC(=O)N1CCN(c2ccc(-n3c(=O)ccc4cnc5ccc(-c6cnc7ccccc7c6)cc5c43)cc2C(F)(F)F)CC1` [Torin1], the cell viability falls from 96.1% to 77.7%.

Going from `C[C@H](NC(=O)c1sccc1OCc1ccc(Cl)cc1)c1ccccc1` to `Oc1ccc(Nc2nc(-c3ccc(Cl)cc3)cs2)cc1` [SKI II], the cell viability rises from 89% to 94.2%.

Going from `O=C(O)C1=CC(=C(c2ccc(O)c(C(=O)O)c2)c2ccc(O)c(C(=O)O)c2)C=CC1=O` [Aurintricarboxylic acid] to `Cc1c(-c2ccc(-c3ccccc3F)cc2)nc2ccc(F)cc2c1C(=O)O` [Brequinar], the cell viability rises from 91.4% to 93.4%.

Compared with `COC(=O)[C@]12CCC(C)(C)C[C@H]1[C@H]1C(=O)C=C3[C@@]4(C)C=C(C#N)C(=O)C(C)(C)[C@@H]4CC[C@@]3(C)[C@]1(C)CC2` [Bardoxolone methyl], `C=C(C)[C@H]1Cc2c(ccc3c2O[C@@H]2COc4cc(OC)c(OC)cc4[C@@H]2C3=O)O1` [Rotenone] is lower in cell viability: 80.8% for the first, 80.5% for the second.

Going from `Nc1nc(Cl)nc2c1ncn2[C@H]1C[C@H](O)[C@@H](CO)O1` [Cladribine] to `O=C1c2cc([N+](=O)[O-])ccc2-n2c1nc1ccccc1c2=O` [GNF-Pf-3777], the cell viability rises from 54.6% to 96.4%.

Same assay, conditions: 100 nM; 72 h

First: O=C(C1CC1)N1CC[C@@H](C=C2NNC(=O)N2c2ccc(-c3ccc4occc4c3)cc2)C1
Second: CCC(=O)N1CCN(c2ccc(-n3c(=O)ccc4cnc5ccc(-c6cnc7ccccc7c6)cc5c43)cc2C(F)(F)F)CC1 [Torin1]
The cell viability of the first is higher: 92.9% for the first, 75.2% for the second.

First: C[C@H](NC(=O)c1sccc1OCc1ccc(Cl)cc1)c1ccccc1
Second: Oc1ccc(Nc2nc(-c3ccc(Cl)cc3)cs2)cc1 [SKI II]
The cell viability of the first is higher: 92.3% for the first, 89.3% for the second.

Going from `O=C(O)C1=CC(=C(c2ccc(O)c(C(=O)O)c2)c2ccc(O)c(C(=O)O)c2)C=CC1=O` [Aurintricarboxylic acid] to `Cc1c(-c2ccc(-c3ccccc3F)cc2)nc2ccc(F)cc2c1C(=O)O` [Brequinar], the cell viability rises from 94.1% to 96.6%.

Compared with `COC(=O)[C@]12CCC(C)(C)C[C@H]1[C@H]1C(=O)C=C3[C@@]4(C)C=C(C#N)C(=O)C(C)(C)[C@@H]4CC[C@@]3(C)[C@]1(C)CC2` [Bardoxolone methyl], `C=C(C)[C@H]1Cc2c(ccc3c2O[C@@H]2COc4cc(OC)c(OC)cc4[C@@H]2C3=O)O1` [Rotenone] is higher in cell viability: 57.3% for the first, 57.6% for the second.

First: Nc1nc(Cl)nc2c1ncn2[C@H]1C[C@H](O)[C@@H](CO)O1 [Cladribine]
Second: O=C1c2cc([N+](=O)[O-])ccc2-n2c1nc1ccccc1c2=O [GNF-Pf-3777]
The cell viability of the first is lower: 12.5% for the first, 96.6% for the second.

Same assay, conditions: 1000 nM; 72 h

Compared with `O=C(C1CC1)N1CC[C@@H](C=C2NNC(=O)N2c2ccc(-c3ccc4occc4c3)cc2)C1`, `O=C(O)C1=CC(=C(c2ccc(O)c(C(=O)O)c2)c2ccc(O)c(C(=O)O)c2)C=CC1=O` [Aurintricarboxylic acid] is higher in cell viability: 86.5% for the first, over 100% for the second.

First: C[C@H](NC(=O)c1sccc1OCc1ccc(Cl)cc1)c1ccccc1
Second: COC(=O)[C@]12CCC(C)(C)C[C@H]1[C@H]1C(=O)C=C3[C@@]4(C)C=C(C#N)C(=O)C(C)(C)[C@@H]4CC[C@@]3(C)[C@]1(C)CC2 [Bardoxolone methyl]
The cell viability of the first is higher: 91.7% for the first, 4.17% for the second.

Source: the supplement of paper PMC8671470
